According to PubChem BioAssay AID1259407 (Chemical Carcinogenesis Research Information System (CCRIS), 2018):
Active and inactive are the calls of the source. The rule behind the calls is not given here.

Test system: CCRIS mutagenicity, Ames/micronucleus/aberration tests
Assay: CCRIS mutagenicity studies
Conditions: Test System: AMES SALMONELLA TYPHIMURIUM; Strain/Indicator: TA100; Metabolic Activation: RAT, LIVER, S-9, AROCLOR 1254; Method: STANDARD PLATE

Oc1cccc2c1-c1cc3cccc4ccc5ccc-2c1c5c43
mutagenic call: active; positive
